Experimental data: ChEMBL document CHEMBL3879909, “Piperidin-4-yl azetidine derivatives as JAK1 inhibitors” (2014)

Experiments:
[1] = species on record: Homo sapiens; assay: Selectivity ratio of IC50 for human N-terminal His-tagged JAK2 catalytic domain (828 to 1132 residues) to IC50 for human N-terminal His-tagged JAK1 catalytic domain (837 to 1142 residues)
[2] = target: Tyrosine-protein kinase JAK1 (Homo sapiens, UniProt P23458); assay: Inhibition of human N-terminal His-tagged JAK1 catalytic domain (837 to 1142 residues) expressed in baculovirus infected insect cells assessed as decrease in phosphorylation of biotinylated peptide substrate after 1 hr in presence of 1 mM ATP by HTRF method
[3] = target: Tyrosine-protein kinase JAK2 (Homo sapiens, UniProt O60674); assay: Inhibition of human N-terminal His-tagged JAK2 catalytic domain (828 to 1132 residues) expressed in baculovirus infected insect cells assessed as decrease in phosphorylation of biotinylated peptide substrate after 1 hr in presence of 1 mM ATP by HTRF method
Chain of Tyrosine-protein kinase JAK2 (O60674 whole entry, the tested form may be a part): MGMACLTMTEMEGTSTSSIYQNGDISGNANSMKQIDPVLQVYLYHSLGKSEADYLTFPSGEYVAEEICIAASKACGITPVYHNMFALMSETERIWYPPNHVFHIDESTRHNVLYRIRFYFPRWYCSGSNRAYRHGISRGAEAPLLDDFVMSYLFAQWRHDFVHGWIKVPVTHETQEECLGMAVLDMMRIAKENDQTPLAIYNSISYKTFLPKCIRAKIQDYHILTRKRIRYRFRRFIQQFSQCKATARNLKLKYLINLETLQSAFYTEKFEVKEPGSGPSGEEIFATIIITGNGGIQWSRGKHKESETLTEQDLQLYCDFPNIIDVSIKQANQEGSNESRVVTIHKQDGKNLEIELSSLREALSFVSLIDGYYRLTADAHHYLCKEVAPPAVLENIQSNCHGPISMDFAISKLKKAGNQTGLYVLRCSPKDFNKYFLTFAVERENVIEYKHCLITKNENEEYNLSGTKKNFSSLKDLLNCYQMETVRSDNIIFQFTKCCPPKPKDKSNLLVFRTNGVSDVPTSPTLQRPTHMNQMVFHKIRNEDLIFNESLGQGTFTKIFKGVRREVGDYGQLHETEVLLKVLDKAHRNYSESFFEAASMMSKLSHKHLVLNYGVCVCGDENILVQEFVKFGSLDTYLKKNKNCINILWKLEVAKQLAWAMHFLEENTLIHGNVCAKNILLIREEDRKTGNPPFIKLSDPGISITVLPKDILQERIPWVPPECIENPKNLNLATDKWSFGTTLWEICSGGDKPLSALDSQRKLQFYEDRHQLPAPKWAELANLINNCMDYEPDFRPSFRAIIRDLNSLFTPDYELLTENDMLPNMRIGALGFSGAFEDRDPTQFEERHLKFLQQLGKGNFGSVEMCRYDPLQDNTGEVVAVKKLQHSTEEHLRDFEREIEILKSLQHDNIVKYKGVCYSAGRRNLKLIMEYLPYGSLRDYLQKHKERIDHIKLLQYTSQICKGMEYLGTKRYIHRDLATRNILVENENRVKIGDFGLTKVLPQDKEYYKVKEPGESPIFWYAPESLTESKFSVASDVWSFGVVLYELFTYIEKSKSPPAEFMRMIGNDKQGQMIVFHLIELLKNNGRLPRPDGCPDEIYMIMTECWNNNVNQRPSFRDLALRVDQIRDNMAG

Chain of Tyrosine-protein kinase JAK1 (P23458 whole entry, the tested form may be a part): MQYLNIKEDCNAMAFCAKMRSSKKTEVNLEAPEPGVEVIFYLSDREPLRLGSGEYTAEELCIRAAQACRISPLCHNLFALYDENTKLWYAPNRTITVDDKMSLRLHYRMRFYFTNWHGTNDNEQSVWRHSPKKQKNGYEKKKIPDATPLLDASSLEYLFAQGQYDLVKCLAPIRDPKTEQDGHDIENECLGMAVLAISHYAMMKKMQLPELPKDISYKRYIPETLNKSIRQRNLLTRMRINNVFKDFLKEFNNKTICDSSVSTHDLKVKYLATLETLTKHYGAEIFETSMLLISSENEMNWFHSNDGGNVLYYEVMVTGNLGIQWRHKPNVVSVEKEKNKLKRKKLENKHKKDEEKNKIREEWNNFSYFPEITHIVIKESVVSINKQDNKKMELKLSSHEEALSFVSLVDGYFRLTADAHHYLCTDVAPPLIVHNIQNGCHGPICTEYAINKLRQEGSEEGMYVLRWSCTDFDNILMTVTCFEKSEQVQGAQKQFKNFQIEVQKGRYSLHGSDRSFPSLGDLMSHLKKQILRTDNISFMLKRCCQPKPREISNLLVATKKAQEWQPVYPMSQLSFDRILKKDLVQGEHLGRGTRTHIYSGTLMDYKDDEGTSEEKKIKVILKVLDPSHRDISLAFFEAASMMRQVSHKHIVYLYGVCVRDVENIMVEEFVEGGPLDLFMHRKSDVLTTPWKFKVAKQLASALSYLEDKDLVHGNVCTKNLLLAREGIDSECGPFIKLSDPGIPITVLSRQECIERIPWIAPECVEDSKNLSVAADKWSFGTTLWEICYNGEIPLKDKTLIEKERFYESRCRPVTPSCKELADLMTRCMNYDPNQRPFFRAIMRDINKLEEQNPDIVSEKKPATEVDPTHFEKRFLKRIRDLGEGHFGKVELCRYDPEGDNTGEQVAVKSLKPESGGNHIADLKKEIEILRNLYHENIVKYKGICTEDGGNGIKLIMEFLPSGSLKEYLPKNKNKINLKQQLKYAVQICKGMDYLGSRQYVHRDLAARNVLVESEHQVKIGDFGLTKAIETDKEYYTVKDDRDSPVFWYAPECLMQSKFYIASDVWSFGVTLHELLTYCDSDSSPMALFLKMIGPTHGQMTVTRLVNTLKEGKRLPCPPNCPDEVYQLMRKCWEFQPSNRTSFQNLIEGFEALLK

Row | Structure (SMILES) | Ratio IC50 [1] | IC50 [2] | IC50 [3]
1 | N#CCC1(n2cc(-c3ncnc4[nH]ccc34)cn2)CN(C2CCN(C(=O)OCc3cc(F)cc(F)c3)CC2)C1 | 7.1 to 24.4 | – | –
2 | CO[C@@H]1CN(C(=O)c2ccnc(C(F)(F)F)c2F)CC[C@@H]1N1CC(CC#N)(n2cc(-c3ncnc4[nH]ccc34)cn2)C1 (relative stereo) | 59.2 | ≤ 0.005 µM | > 0.1 µM
3 | N#CCC1(n2cc(-c3ccnc4[nH]ccc34)cn2)CN(C2CCN(C(=O)c3ccnc(C(F)(F)F)c3F)CC2)C1 | 21.4 | 0.005 to 0.02 µM | > 0.1 µM
4 | N#CCC1(n2cc(-c3ncnc4[nH]ccc34)cn2)CN(C2CCN(C(=O)Nc3cnccc3C(F)(F)F)CC2)C1 | 10.4 to 20.3 | – | –
